According to US20070072954A1, “Novel tetraoxaspiroalkanes and methods of use with organosilicon monomers in polyerizable compositions” (Curators of the University of Missouri, priority 2005, published 2007):
Marks after values point to notes of the source that are not given here.

Tests used:
[1] = Oxirane ring-opening (oxirane conversion) via FTIR; assay type: physicochemical; details: thin film, 10 min irradiation
Method: In this example, the oxirane ring-opening of monomers 1 (DEBAOM-1,5,7,11-TOSU) or 6 (DEBTMSPOM-1,5,7,11-TOSU) was investigated using FTIR. All FTIR spectra were acquired using a Perkin-Elmer BX II FTIR spectrophotometer. The identification of the location of the oxirane absorption band in the IR spectrum of Siloranes was achieved by methanolysis. A sample was dissolved in CH2Cl2 and exposed to CH30H in the presence of a catalytic amount of zinc tetrafluoroborate hydrate overnight. The mixture was evaporated onto a salt plate. An FTIR spectrum was acquired and compared to pre-exposure spectrum. There was a significant decrease in the oxirane absorption region at 882-886 cm^−1. This band was selected as the absorption to monitor for following the oxirane ring-opening reaction.
Analytical samples contained siloranes I, II, or SIL-MIX with and without 50 mol % of monomer 1 (DEBAOM-1,5,7,11-TOSU) or 6 (DEBTMSPOM-1,5,7,11-TOSU). A thin film was brushed onto a salt plate. Irradiation (10 minutes at 23 to 25° C. and R. H.=40-45%) was provided by a 3M XL2500 curing light positioned 1-cm above the sample surface. The light intensity was measured at 360 mW/cm^2 on the sample surface. The oxirane band absorption and an internal reference band absorption were assessed before and after irradiation. Oxirane conversion (alpha) was calculated according to equation (1) by Pan et al., Polym Int 2000, 49, 74. [formula] where subscripts 0 and t represent pre-irradiation and post-irradiation respectively.

[2] = Mechanical properties measurement (3-point bend tests); assay type: physicochemical; details: for Flexural elastic modulus / Work of Fracture / Flexural ultimate strength: 24-h, mean(std. dev.), n=6, BT and SIL-MIX alone; for Flexural ultimate strength: the values are: Ultimate (flexural) strength
Method: In this example, the elastic modulus, ultimate strength, and work of fracture were determined for the monomers of the present invention. […] The resin was injected into the mold and cured by irradiation (500 mW/cm^2) followed by storage in the dark for 4 hours and 24 hours before mechanical tests were conducted. Three point bending tests were conducted using an electromagnetic mechanical testing machine (Enduratec Model 3200) with a 20-mm span and at a crosshead displacement rate of 0.5mm/ min at room temperature (25° C.). Load-displacement data were collected at 100 Hz. […] Flexural ultimate strength was determined from the peak loads and work of fracture was determined from the area under the stress-strain curve.

[3] = Photopolymerization stress measurement (tensilometer); assay type: physicochemical; details: for Polymerization Stress: mean(std. dev.), n=3, TOSU monomers 20 mol % in SIL-MIX, BT and SIL-MIX alone
Method: In this example, the photopolymerization stress of the monomers of the present invention was investigated. Stress generated during photopolymerization was measured (n=3) using an electromagnetic mechanical testing machine (Enduratec Model 3200, Bose Corp., Minnetonka, Minn.) adapted to be a tensilometer. See Feilzer et al., Dent. Mater. […] Briefly, two identical glass rods, 5 mm in diameter, were placed opposing one another and separated by 1 mm (C-factor=2.5). A displacement transducer (LVDT, Enduratec, 0.1 μm resolution, range ±1 mm) was mounted on one glass rod and was touching a plate attached to the opposing glass rod. The distance between the mounts on the opposing glass rods was about 9 mm (including the 1 mm separation between the rods). Samples placed between the glass rods were cured by irradiation (500 mW/cm^2), while under LVDT displacement control. Load-displacement data were collected at 200 Hz for 30 mins. […] From the load-displacement data, peak loads were obtained and normalized by the original area to obtain the polymerization stresses.

[4] = Photoreactivity assessment (photo DSC enthalpy of polymerization); assay type: physicochemical; details: for ΔHexp / ΔHcalc / Net Enthalpy ΔH: 3 wt % PI; for ΔH (experimental)/ΔH (calculated): calculated for an inert diluent; for Exotherm Peak Maximum / Net Enthalpy ΔH: TOSU monomers 20 mol % in SIL-MIX, SIL-MIX alone; for Net Enthalpy ΔH: experimental, 1 wt % CQ, 0.1 wt % ED, 400-500 nm, 10 min, 25° C., n=1
Excerpt: In this example, the photoreactivity of various combinations of SIL-MIX alone or SIL-MIX with 3,9-diethyl-3,9-bis(allyloxymethyl)-1,5,7,11-tetraoxaspiro[5.5]undecane (DEBAOM-1,5,7,11-TOSU) 1; 3,9-bis(3-trimethylsilylpropyl)-1,5,7,11-tetraoxaspiro[5.5]undecane (BTMSP-1,5,7,11-TOSU) 2; 3,9-bis(allyloxymethyl)-2,4,8,10-tetraoxaspiro[5.5]undecane (BAOM-2,4,8,10-TOSU) 3; 3,9-bis(2-trimethylsilylethyl)-[…] (BTMSE-2,4,8,10-TOSU) 4; 3,3-diethyl-11,12-epoxy-1,5,7,16-tetraoxadispiro[5.2.5.2]hexadecane (DECHE-1,5,7,11-TOSU) 5; and 3,9-diethyl-3,9-bis(3-trimethylsilylpropyloxymethyl)-1,5,7,11-tetraoxaspiro[5.5]-undecane (DEBTMSPOM-1,5,7,11-TOSU) 6 was investigated. The photoreactivity assessments (n=1) were made using an EXFO Novacure light curing unit interfaced with a Perkin-Elmer Diamond DSC. The experimental conditions were as follows: 25° C.; N2 atmosphere; 400-500 nm light; 3 mm quartz light guides; output: 500 mW/cm measured 15 mm from sample surface. The sample weights were 15-18 mg. Standard A1 pans were used. An empty pan was placed in the reference position. Irradiation time was for 10 minutes following a 1 minute equilibration. After the initial run, the sample was re-irradiated for an additional 10 minutes. This second curve was subtracted from the initial exotherm curve to zero out artifacts due to beginning and ending of irradiation, and to compensate for the heat capacity differences between the sample pan and empty reference pan. Integrations were from time t=1.1 (lamp shutter opened) min to 11.1 min (lamp shutter closed).
In this example, reaction mixtures containing 0 or 20 mol % of TOSU monomers 1, 2, 3, 4, and 5 in SIL-MIX were formulated with 4.1 wt % photoinitiator system (3 wt % PI; 1 wt % CQ; 0.1 wt % ED). Formulated mixtures were heated for 5 minutes on an oil bath at about 60° C. and stirred magnetically to aid dissolution of the photoinitiator system and inventive monomer. Formulations were prepared and stored away from ambient light. Mixtures were tested for photoreactivity the same day as prepared.
The effect of doubling the photoinitiator (PI) content from 3 wt % to 6 wt % was also determined for selected mixtures. As in Example 7(a) above, reaction mixtures (about 2 g) were formulated with 4.1 wt % photoinitiator system (3 wt % PI; 1 wt % CQ; 0.1 wt % ED) except where noted. Formulated mixtures were heated for 5 minutes on an oil bath @ 60° C. and stirred magnetically to dissolve the photoinitiator system and 6 (DEBTMSPOM-1,5,7,11-TOSU) when included. Formulations were prepared and stored away from ambient light and tested the same day as prepared.

[5] = 20 mol % in SIL-MIX, Dunnett's test p=0.05
[6] = TOSU monomers 20 mol % in SIL-MIX

| elastic modulus values compared with the methacrylate control (BT) [2, 5] | Flexural elastic modulus [2, 6] [GPa] | Work of Fracture [2, 6] | Flexural ultimate strength [2, 6] [MPa] | Polymerization Stress [3] | ΔH (experimental)/ΔH (calculated) ([4]; 20 mol % in SIL-MIX) [%] | Exotherm Peak Maximum [4] [s] | Net Enthalpy ΔH [4] | Compound | ultimate strength values compared with the methacrylate control (BT) [2, 5] | also measured |
| --- | --- | --- | --- | --- | --- | --- | --- | --- | --- | --- |
| significantly lower | 2.2 | 5.82 (2.02) kJ/m^2 | 84.6 | 0.17 (0.06)* N/mm^2 | 80 | 14 | −116^b J/g | C=CCOCC1(CC)COC2(OC1)OCC(CC)(COCC=C)CO2 (centres unmarked) [Monomer 1, 3,9-diethyl-3,9-bis(allyloxymethyl)-1,5,7,11-tetraoxaspiro[5.5]undecane] | significantly lower | Oxirane Conversion ([1]; comonomer 50 mol % in PH-SIL (I)): 36%; Oxirane Conversion ([1]; comonomer 50 mol % in TET-SIL (II)): 27%; ΔHexp ([4]; 20 mol % in SIL-MIX): -124 J/g; ΔHexp ([4]; 50 mol % in PH-SIL): -78 J/g; ΔHcalc ([4]; calculated for inert diluent instead of TOSU at 20 mol %): -154 J/g; ΔHcalc ([4]; calculated for inert diluent instead of TOSU at 50 mol % in PH-SIL): -104 J/g; experimental ΔH as % of the calculated ΔH ([4]; 20% in SIL-MIX): 81%; experimental value as % of the calculated value (ΔH) ([4]; 50% in Ph-Sil): 75% |
|  | 2.58 | 5.33 (1.09) kJ/m^2 | 96 | 0.33 (0.15)* N/mm^2 | 57 | 16 | −82^b J/g | CCC1(CC)COC2(OC1)OCC1(CCC3OC3C1)CO2 (centres unmarked) [Monomer 5, 3,3-diethyl-11,12-epoxy-1,5,7,16-tetraoxadispiro[5.2.5.2]hexadecane] |  | melting point: 67.4 °C |
|  |  |  |  |  |  |  |  | C[Si]1(CCC2CCC3OC3C2)O[Si](C)(CCC2CCC3OC3C2)O[Si](C)(CCC2CCC3OC3C2)O[Si](C)(CCC2CCC3OC3C2)O1 (centres unmarked) [TET-SIL, 2,4,6,8-tetramethyl-2,4,6,8-tetrakis-[2-(7-oxabicyclo[4.1.0]hept-3-yl)ethyl]-1,3,5,7-tetraoxa-2,4,6,8-tetrasilacyclooxtane, reference compound] |  | Oxirane Conversion ([1]; silorane without comonomer): 13% |
|  |  |  |  |  |  |  |  | C[Si](CCC1CCC2OC2C1)(CCC1CCC2OC2C1)c1ccccc1 (centres unmarked) [PH-SIL, methylbis[2-(7-oxabicyclo[4.1.0]hept-3-yl)ethyl]phenylsilane, reference compound] |  | Oxirane Conversion ([1]; silorane without comonomer): 31%; ΔHexp ([4]; 100% silorane): -208 J/g |
| significantly lower | 2.13 | 7.17 (1.58) kJ/m^2 | 87.8 | 1.20 (0.17)* N/mm^2 | 117 | 15 | −170^b J/g | C=CCOCC1OCC2(CO1)COC(COCC=C)OC2 (centres unmarked) [Monomer 3, 3,9-bis(allyloxymethyl)-2,4,8,10-tetraoxaspiro[5.5]undecane] | significantly lower | enthalpies above those calculated for addition of an inert diluent ([4]; 20 mol % in SIL-MIX): 17% |

| Compound | elastic modulus values compared with the methacrylate control (BT) [2, 5] | Flexural elastic modulus [2, 6] [GPa] | Work of Fracture [2, 6] | Flexural ultimate strength [2, 6] [MPa] | Polymerization Stress [3] | ΔH (experimental)/ΔH (calculated) ([4]; 20 mol % in SIL-MIX) [%] | Exotherm Peak Maximum [4] [s] | Net Enthalpy ΔH [4] | ultimate strength values compared with the methacrylate control (BT) [2, 5] | also measured |
| --- | --- | --- | --- | --- | --- | --- | --- | --- | --- | --- |
| C[Si](C)(C)CCCC1COC2(OC1)OCC(CCC[Si](C)(C)C)CO2 (centres unmarked) [Monomer 2, 3,9-bis(3-trimethylsilylpropyl)-1,5,7,11-tetraoxaspiro[5.5]undecane] | significantly lower | 1.9 | 1.12 (0.42)* kJ/m^2 | 42.4 | 0.23 (0.06)* N/mm^2 | 54 | 14 | −78^b J/g | significantly lower | work of fracture values compared with the methacrylate control (BT) [2, 5]: significantly lower; all mechanical properties, overall comparison (with BT control and among formulations) ([2]; TOSU monomers 20 mol % in SIL-MIX, SIL-MIX alone): lowest mechanical property values |
| C[Si](C)(C)CCC1OCC2(CO1)COC(CC[Si](C)(C)C)OC2 (centres unmarked) [Monomer 4, 3,9-bis(2-trimethylsilylethyl)-2,4,8,10-tetraoxaspiro[5.5]undecane] |  | 2.36 | 5.63 (1.82) kJ/m^2 | 92.2 | 6.90 (1.76)* N/mm^2 | 117 | 17 | −170^b J/g | significantly lower | Photopolymerization stress reduced ([3]; 20 mol % in SIL-MIX): 40%; enthalpies above those calculated for addition of an inert diluent ([4]; 20 mol % in SIL-MIX): 17% |
